Measurements taken from US12466807B2, “Salt and crystal form of a FAK inhibitor” (Amplia Therapeutics Limited, priority 2019, dated 2025).
Converted amounts (≈) assume the structure as drawn. Where two headings read alike, the source gives them in different places. Blank lines part the entries; values can stand above or below the compound they belong to.

Key:
[1] = Salt disproportionation studies; assay type: physicochemical
Protocol: Salt disproportionation studies were carried out as follows: • Approximately 10-20 mg of Formula I free base, L-tartrate Pattern 1 were weighed into HPLC vials. • 1 mL deionized water was then added to each vial and the vials capped and shaken at ambient temperature for 24 hours. • After this time, the samples were transferred to centrifuge tubes with nylon filters (0.22 μm) and centrifuged for approximately 15 minutes. The isolated solids were analyzed by XRPD and the filtrates analyzed by HPLC for concentration determination and the pH of all the filtrates were measured with a pH meter.

[2] = Oral exposure (pharmacokinetics) in rats; assay type: in vivo, male Sprague Dawley rats; details: rat
Protocol: To compare the exposure of the compound of Formula I in male Sprague Dawley rats following oral administration of the free base and L-tartrate salt at a target dose of 20 mg/kg (as free base equivalent).
Further details of the in-life, formulation and bioanalytical procedures together with the data analysis, are described in Appendix 1.
In-Life • The exposure of Formula I was studied in overnight-fasted male Sprague Dawley rats that had access to water ad libitum throughout the pre- and post-dose sampling period, and access to food was re-instated 4 h post-dose. In-life details are provided in Table A1-1. • Samples of arterial blood and total urine were collected up to 48 h post-dose. Arterial blood was collected directly into borosilicate vials (at 4° C.) containing heparin, Complete® (a protease inhibitor cocktail) and potassium fluoride to minimise potential for ex vivo degradation of Formula I in blood/plasma samples. Once collected, blood samples were centrifuged, supernatant plasma was removed and stored frozen (−80° C.) until analysis by LC-MS.
The extraction of the test compound from plasma samples was conducted using protein precipitation with acetonitrile. Both solution and plasma standards were freshly prepared, with each set of standards comprising at least seven different analyte concentrations. Solution standards were diluted from a stock solution (1 mg/mL in DMSO) with 50% acetonitrile in water. Plasma standards were prepared by spiking blank plasma (50 μL) with solution standards (10 μL) and the internal standard, diazepam (10 μL, 5 μg/mL).
Plasma samples were similarly prepared, except that blank acetonitrile (10 μL) was added instead of solution standards. Protein precipitation was carried out by the addition of acetonitrile (120 μL), vortexing (20 s) and centrifugation (10,000 rpm) in a microcentrifuge for 3 minutes. The supernatant was subsequently separated and 3 μL injected directly onto the column for LC/MS analysis using conditions tabulated below. All plasma concentrations are expressed as the non-salt equivalent.
Standard Calculations • Plasma concentration versus time data were analysed using non-compartmental methods (PKSolver Version 2.0). Standard calculations for each pharmacokinetic parameter are listed below.
(§1) [formula] • AUCIV Area under the plasma concentration versus time profile from time zero to infinity after IV administration (reported previously: CDCO_FAK_11_031) • t1/2 Elimination half-life • λ2 Terminal elimination rate constant after IV administration • BA Oral bioavailability • AUCoral Area under the plasma concentration versus time profile from time zero to infinity after oral administration • Cmax Maximum plasma concentration observed after oral administration. • Tmax Time to achieve Cmax • Differences in pharmacokinetic parameters (t½, AUC, Cmax, Tmax and BA) between free base and L-tartrate salt were evaluated using an unpaired t-test testing for significance at α=0.05 (GraphPad Prism, version 7.01)

[3] = Thermodynamic solubility studies; assay type: physicochemical; details: for solubility thermodynamic at 24 h: buffer, 22 °C, thermodynamic from solid; for HPLC Conc: ca. 22° C.
Protocol: Thermodynamic Solubility Studies were carried out as follows: • Approximately 10 mg of Formula I free base Pattern 1 and L-tartrate Pattern 1, were weighed into a 1.5 mL screw-cap vial. The appropriate buffer system was added to create a slurry and the vials were shaken at ambient temperature (ca. 22° C.) for approximately 24 hours. • After this time, the slurries were transferred to centrifuge tubes containing nylon filters (0.22 μm) and filtered using a centrifuge for ca. 10 minutes. The isolated solids were then analyzed by XRPD and the filtrates measured by a pH meter and analyzed by HPLC for concentration.

[4] = Dynamic/gravimetric vapour sorption (DVS/GVS) hygroscopicity; assay type: physicochemical; details: at 90% R.H., 25° C.
Protocol: Approximately 10-20 mg of sample was placed into a mesh vapour sorption balance pan and loaded into the DVS-1 dynamic vapour sorption balance by Surface Measurement Systems. The sample was subjected to a ramping profile from 40-90% relative humidity (RH) at 10% increments, maintaining the sample at each step until a stable weight had been achieved (dm/dt 0.004%, minimum step length 30 minutes, maximum step length 500 minutes) at 25° C. After completion of the sorption cycle, the sample was dried using the same procedure to 0% RH and then a second sorption cycle back to 40% RH. Two cycles were performed. The weight change during the sorption/desorption cycles were plotted, allowing for the hygroscopic nature of the sample to be determined. XRPD analysis was then carried out on any solid retained.
Approximately 10-20 mg of sample was placed into a mesh vapour sorption balance pan and loaded into an IGASorp Moisture Sorption Analyser balance by Hiden Analytical. The sample was subjected to a ramping profile from 40-90% relative humidity (RH) at 10% increments, maintaining the sample at each step until a stable weight had been achieved (98% step completion, minimum step length 30 minutes, maximum step length 60 minutes) at 25° C. After completion of the sorption cycle, the sample was dried using the same procedure to 0% RH, and finally taken back to the starting point of 40% RH. Two cycles were performed. The weight change during the sorption/desorption cycles were plotted, allowing for the hygroscopic nature of the sample to be determined.

[5] = IV pharmacokinetics in rats (reported previously); assay type: in vivo, male Sprague Dawley rats; details: IV 4.48 mg/kg, rat
Source text: as §1

[6] = PO 20 mg/kg (free base equivalent), mean ± SD, n = 3, 20 mg/kg

Water pH Post-24 h ([1]; deionized water, 24 h, ambient temperature): 5.63
XRPD Result ([1]; solid after 24 h in deionized water): Free Base
BA [2, 6]: 48.6 ± 9.2%
Tmax [2, 6]: 5.0 ± 0.0 h
% Dose in urine (unchanged Formula I) ([2]; PO 20 mg/kg, pooled urine up to 48 h, 20 mg/kg): 0.208 ± 0.24%
Cmax ([2]; male, Sprague Dawley, plasma, po, 20 mg/kg, PO 20 mg/kg (free base equivalent), mean ± SD, n = 3): 934 ± 260 nM
half-life ([2]; male, Sprague Dawley, plasma, po, 20 mg/kg, PO 20 mg/kg (free base equivalent), mean ± SD, n = 3, read-out: Apparent t1/2 (converted)): 336 ± 6 min
AUC(0-inf) ([2]; male, Sprague Dawley, plasma, po, 20 mg/kg, PO 20 mg/kg (free base equivalent), mean ± SD, n = 3, read-out: Plasma AUC0-inf): 9.93 ± 1.9 µM·h
Tmax ([2]; male, Sprague Dawley, plasma, po, 20 mg/kg, PO 20 mg/kg (free base equivalent), mean ± SD, n = 3, read-out: Tmax): 5 to 7 h
N-demethylation metabolite of Formula I ([2]; plasma and urine after PO 20 mg/kg, not quantified): detected in plasma and urine
Thermodynamic Solubility ([3]; Water): <0.1 mg/mL
pH Post-24 h Slurry ([3]; Water): 5.63
solubility thermodynamic at 24 h ([3]; pH 1, simulated gastric fluid, pH 1.0): 300 µg/mL (≈ 569 µM)
solubility thermodynamic at 24 h ([3]; pH 6.8, aqueous buffer, pH 6.8): < 100 µg/mL
pH Post-24 h Slurry ([3]; pH 1.0): 1.37
HPLC Conc ([3]; pH 1.0, 24 h slurry): 0.3 mg/mL
XRPD Result ([3]; pH 1.0, solid after 24 h slurry, listed as Free Base): Possible HCl Salt
XRPD Result ([3]; pH 1.0, solid after 24 h slurry, listed as free base): possible HCl salt
Thermodynamic Solubility ([3]; pH 4.5): 11.9 mg/mL
pH Post-24 h Slurry ([3]; pH 4.5): 5.60
HPLC Conc ([3]; pH 4.5, 24 h slurry): 11.9 mg/mL
HPLC Conc ([3]; pH 4.5, 24 h slurry, listed as Formula I free base): 11.9 mg/mL
XRPD Result ([3]; pH 4.5, solid after 24 h slurry): Free Base
pH Post-24 h Slurry ([3]; pH 6.8): 7.44
HPLC Conc ([3]; pH 6.8, 24 h slurry, listed as Free Base): <0.1 mg/mL
HPLC Conc ([3]; pH 6.8, 24 h slurry, listed as free base): < 0.1 mg/mL
XRPD Result ([3]; pH 6.8, solid after 24 h slurry): Alternate crystalline form
XRPD Result ([3]; pH 6.8, solid after 24 h slurry, listed as Formula I free base): change in XRPD pattern
HPLC Conc ([3]; water, 24 h slurry): <0.1 mg/mL
HPLC Conc ([3]; water, 24 h slurry, listed as Formula I free base): < 0.1 mg/mL
XRPD Result ([3]; water, solid after 24 h slurry): Free Base
Hygroscopicity, mass uptake (DVS/GVS) [4]: Uptake of 5 wt %
SMILES: COc1cc(C2CCN(C)CC2)ccc1Nc1ncc(C(F)(F)F)c(CCc2ccccc2CC(N)=O)n1 [Free base]
Adverse reactions or compound-related side effects ([2]; PO 20 mg/kg, 48 h sampling period): No adverse reactions or compound-related side effects were observed

% Dose in urine (unchanged Formula I) ([5]; pooled urine up to 24 h): 1.14%
half-life ([5]; male, Sprague Dawley, plasma, mean of n = 2, read-out: Apparent t1/2 (converted)): 288 min
AUC(0-inf) ([5]; male, Sprague Dawley, plasma, mean of n = 2, read-out: Plasma AUC0-inf): 4.57 µM·h
SMILES: COc1cc(C2CCN(C)CC2)ccc1Nc1ncc(C(F)(F)F)c(CCc2ccccc2CC(N)=O)n1 [Formula I]
